These results are taken from patent US4798892A, “2-hydroxypropylamine heteroaryl ester derivatives” (priority 1986, dated 1989).

Broadly, the fraction remaining is the share of the starting amount still present when the sample was taken. The term % Inhibition denotes how much of the control response was suppressed. A high value points to a response far below the control.

Values joined by “and” are separate entries in the source; they are usually repeats but may differ in a detail not shown here. Equal values may be shown once. Where a name gives a salt, the structure may show the parent alone. Read-outs that look alike come from different tables or passages of the source.

Series [1] addresses T1, beta adrenergic receptor (guinea pig right atria) (Cavia porcellus, UniProt H0W3H1).
T1 construct: guinea pig right atria and guinea pig tracheal strips mounted in a tissue bath; from tissue; host or cells: guinea pig right atria, spontaneously beating
As to the kind of experiment: Beta-blocking activity in vitro, guinea pig right atria (blockade of isoproterenol rate response).

The subject of series [2] is beta adrenergic receptor (heart rate response to isoproterenol). As to the kind of experiment: Duration and potency of beta-blocking action in vivo, 3-hour infusion in pentobarbital-anesthetized dogs. Set-up: species or system dog. The following applies: for % I (Percent inhibition of heart rate response to isoproterenol) / Recovery Time 50% / Recovery Time 80% / Potency: Table II; for % I (Percent inhibition of heart rate response to isoproterenol): isoproterenol 0.5 μg/kg bolus, 3-hour infusion; for Recovery Time 50% / Recovery Time 80%: after termination of 3-hour infusion; for Potency: infusion rate adjusted so isoproterenol inhibition averaged about 50% at end of 3-hour infusion; for % Inhibition / Time for 50% Rec. / Time for 80% Rec.: Table IV, dose 2.4 / 22.0 ug/kg/min. How it is done: The duration of β-blockade was determined in vivo using pentobarbital-anesthetized dogs instrumented for measurement of heart rate using a Beckman cardiotachometer triggered electronically by a phasic aortic blood pressure signal. Both vagus nerves were severed in the cervical region and the animals were mechanically ventilated. The experimental design used employed a 3-hour infusion of test compound. Bolus doses of isoproterenol (0.5 μg/kg) were used to assess the degree of β-blockade and recovery from β-blockade after […] of the infusion. The doses were spaced at 10-minute intervals and were given before, during and following the infusion of test compounds. The infusion rate was adjusted so that at the end of the 3-hour infusion period the degree of isoproterenol inhibition averaged about 50% of control. Following termination of blocker infusion, percent recovery from β-blockade was computed and the time associated with 80% recovery estimated.

Series [3] in a line: Enzymatic hydrolysis of beta blockers by dog liver homogenate (procedure C). The conditions noted are these: dog, liver homogenate, 37° C.; for remaining at 1 h: read-out: Percent drug remaining, dog liver homogenate, 1 HR; for remaining at 2 h: read-out: Percent drug remaining, dog liver homogenate, 2 HR. Format: in vitro ADME. The method, then:
(§1) Chemicals--Acetonitrile was "HPLC" grade. Distilled water was used to dissolve the compounds and 0.01N HCl was used to dissolve compounds requiring an acidic pH for dissolution.
(§2) Enzyme Source--Fresh aqueous humor was collected from eyes of dogs using a 23-gauge needle while fresh dog blood was collected into heparinized Vacutainer tubes. Fresh liver was homogenized in 0.9% NaCl using a Potter-Elvehjem Teflon pestle and glass homogenizer making a 25% (W/V) homogenate.
(§3) Incubation Condition--A 0.5 ml aliquot of dog aqueous humor, blood or liver homogenate was incubated with 12.5 μg (0.5 ml) of beta blocker in a Dubnoff shaking metabolic incubator at 37° C. for 60 and 120 min. Denatured tissue controls were prepared by adding 2.0 ml of acetonitrile into 0.5 ml of aqueous humor, blood or liver homogenate to destroy esterase activities prior to addition of the beta blockers. The controls were then incubated at 37° C. for 120 min. After 60 and 120 min, the incubations were terminated by addition of 2 ml of acetonitrile and immediately mixed by a Vortex® to stop esterase activities.
(§4) Sample Processing and Data Analyses--All samples were centrifuged at 4000 RPM for 10 min to sediment denatured proteins. The resultant supernatants were transferred to WISP® vials and analyzed using an HPLC assay developed for beta blockers. The hydrolysis of beta blockers by aqueous humor, blood and liver homogenate was determined by disappearance of the compounds. The extent of enzymatic hydrolysis by each tissue was determined by comparing the amount of each compound (absolute peak area) recovered at each time point to the amount of each compound (absolute peak area) in denatured tissue control and aqueous control samples. The results of these experiments are shown in Tabe III.

Series [4] is described as follows: Enzymatic hydrolysis of beta blockers by dog blood (procedure C). Format: in vitro ADME. The conditions noted are these: dog, blood, 37° C.; for remaining at 1 h: read-out: Percent drug remaining, dog blood, 1 HR; for remaining at 2 h: read-out: Percent drug remaining, dog blood, 2 HR. The method, then:
as §1, §2, §3, §4

Series [5] in a line: Half-lives of beta blockers in dog whole blood (procedure D). The conditions noted are these: 37° C., read-out: T1/2 dog blood. Format: in vitro ADME. The method, then: (§5) The rate of disappearance of a compound is expressed as the half-life (T1/2), which is the time period in which one half of the initial amount of compound tested disappears. In each experiment, 1 ml of a solution containing 50 μg of the test compound was added to 1 ml of whole blood or 1 ml of a 33% (w/v) liver homogenate. The samples were incubated in a Dubnoff shaking metabolic incubator for 2.5, 5.0, 10.0, 20.0, 30.0 and 60.0 minutes at 37° C. At the designated time periods, the test mixtures were removed from the incubator and transferred to a 0° C. ice bath. Acetonitrile (2 ml) was immediately added and the mixtures were mixed to stop enzymatic hydrolysis. Zero time samples were prepared by adding 2 ml of acetonitrile to denature the proteins prior to addition of the test compounds. After centrifugation to sediment denatured proteins, 2 ml of the supernatant was removed and analyzed by high pressure liquid chromatography, using a mobile phase of 60% acetonitrile/40% 0.05 m sodium phosphate buffer (pH 6.6), a U.V. detector and Waters u Bondapak Phenyl column. The half life of each test compound was determined graphically by plotting the decrease in concentrations as a function of time.

The nature of series [6]: Half-lives of beta blockers in dog liver homogenate (procedure D). Format: in vitro ADME. The conditions noted are these: 33% (w/v) homogenate, 37° C., read-out: T1/2 dog liver homogenate. How it is done:
as §5

Series [7] in a line: Enzymatic hydrolysis of beta blockers by dog aqueous humor (procedure C). Format: in vitro ADME. The following applies: for remaining at 1 h / remaining at 2 h: 37° C.; for remaining at 1 h: read-out: Percent drug remaining, dog aqueous humor, 1 HR; for remaining at 2 h: read-out: Percent drug remaining, dog aqueous humor, 2 HR. How it is done: as §1, §2, §3, §4
Where [8] appears, read: Table I, guinea pig right atria, isoproterenol agonist, 60-minute incubation, 37° C., read-out: PA2 Rt. Atria (converted).

T1 sequence (H0W3H1 1-470): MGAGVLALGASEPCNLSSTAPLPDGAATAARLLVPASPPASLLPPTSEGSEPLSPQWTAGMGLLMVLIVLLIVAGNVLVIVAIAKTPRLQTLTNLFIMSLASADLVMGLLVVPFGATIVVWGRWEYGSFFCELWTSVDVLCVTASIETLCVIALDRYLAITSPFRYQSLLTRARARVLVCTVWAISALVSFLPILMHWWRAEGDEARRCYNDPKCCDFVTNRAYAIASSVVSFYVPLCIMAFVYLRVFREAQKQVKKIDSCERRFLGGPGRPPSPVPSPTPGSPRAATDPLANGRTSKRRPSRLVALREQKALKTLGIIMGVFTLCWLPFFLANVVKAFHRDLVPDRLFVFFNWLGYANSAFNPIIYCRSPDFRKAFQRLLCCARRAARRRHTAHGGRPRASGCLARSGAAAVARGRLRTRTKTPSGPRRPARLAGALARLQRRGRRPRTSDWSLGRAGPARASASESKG

As for `CC(C)(CNC(=O)N1CCOCC1)NCC(O)COC(=O)c1ccccc1` (centres unmarked) [XXXIII, 3-[1,1-Dimethyl-2-(1-morpholinocarbonylamino)]ethylamino-2-hydroxypropyl Benzoate Oxalate Hemihydrate], the Kb in series [1] (setting [8]) is 5.01 nM.

Consider `CC(C)(CNS(=O)(=O)c1ccccc1)NCC(O)COC(=O)c1ccccc1F` (centres unmarked) [VIII, 3-[1,1-Dimethyl-2-(phenylsulfonylamino)]ethylamino-2-hydroxypropyl 2-Fluorobenzoate Oxalate], for which, in series [2], the “% I (Percent inhibition of heart rate response to isoproterenol)” value was 43% and 55%. In addition, the amount remaining at 1 h in series [3] and in series [4] was 0% throughout. Besides, the fraction remaining at 2 h in series [3] and in series [4] was 0% each time. For the same compound, the Kb in series [1] (setting [8]) is 100 nM. Moreover, in series [5], the half-life amounted to 15 min.

Turning to `CCOC(=O)NCC(C)(C)NCC(O)COC(=O)c1ccccc1F` (centres unmarked) [IX, 3-[1,1-Dimethyl-2-(ethoxycarbonylamino)]ethylamino-2-hydroxypropyl 2-Fluorobenzoate Hydrochloride], in series [2], the “Recovery Time 50%” value was 3 ± 1 min, the “Recovery Time 80%” value is on record as 8 ± 3 min, the Potency was determined as 6.5 ± 1.8 mg/kg/180 min and the “% I (Percent inhibition of heart rate response to isoproterenol)” value was found to be 49 ± 4%. In series [3], the share remaining at 1 h was 0% and the fraction remaining at 2 h was found to be 0%. In addition, the half-life in series [6] was found to be 1 min. Further, in series [1] (setting [8]), the Kb is 79.4 nM. Also, in series [7], the amount remaining at 1 h is 0% and the share remaining at 2 h was 0%. In series [4], the share remaining at 1 h stood at 0% and the fraction remaining at 2 h came to 0%. The half-life in series [5] was 8 min.

In the case of `CC(=O)NCC(C)NCC(O)COC(=O)c1ccccc1F` (centres unmarked) [III, 3-[1-methyl-2-(methylcarbonylamino)]ethylamino-2-hydroxypropyl 2-Fluorobenzoate], the Kb in series [1] (setting [8]) is over 501 nM.

As for `CC(C)(CNC(=O)N1CCOCC1)NCC(O)COC(=O)c1ccccc1Cl` (centres unmarked) [XXXIV, 3-[1,1-Dimethyl-2-(1-morpholinocarbonylamino)]ethylamino-2-hydroxypropyl 2-Chlorobenzoate Oxalate], the Kb in series [1] (setting [8]) was 12.6 nM.

With `CN(C)S(=O)(=O)NCC(C)(C)NCC(O)COC(=O)c1ccccc1F` (centres unmarked) [XXXII, 3-[1,1-Dimethyl-2-(dimethylaminosulfonylamino)]ethylamino-2-hydroxypropyl 2-Fluorobenzoate Oxalate], in series [1] (setting [8]), the Kb was 39.8 nM.

As to `CC(C)C(=O)NCCNCC(O)COC(=O)c1ccccc1F` (centres unmarked) [Example I, 3-[[2-(Isopropylcarbonylamino)]ethyl]amino-2-hydroxypropyl 2-Fluorobenzoate Hydrochloride], the Kb in series [1] (setting [8]) was 794 nM.

Take `CC(C)(CNC(=O)N1CCOCC1)NCC(O)COC(=O)c1ccc(O)c(O)c1` (centres unmarked) [Example XXXV, 3-[2-[1,1-Dimethyl-2-(1-morpholinocarbonylamino)]ethyl]amino-2-hydroxypropyl 3,4-Dihydroxybenzoate Oxalate Monohydrate]: in series [1] (setting [8]), the Kb was 6.31 nM.

Consider `CNC(=O)NCC(C)(C)NCC(O)COC(=O)c1ccccc1F` (centres unmarked) [Example XI, 3-[1,1-Dimethyl-2-(methylaminocarbonylamino)]ethylamino-2-hydroxypropyl 2-Fluorobenzoate Hemioxalate], for which, in series [2], the “Recovery Time 80%” value is on record as over 60 min; the Potency turned out to be 0.2 mg/kg/180 min; the “% I (Percent inhibition of heart rate response to isoproterenol)” value is 81% and 71%. Moreover, the Kb in series [1] (setting [8]) was 316 nM.

With `CC(C)NC[C@H](O)COc1cccc2ccccc12` (racemic) [Propanolol, reference compound], in series [2], the Potency worked out at 0.2 mg/kg/180 min and the “% I (Percent inhibition of heart rate response to isoproterenol)” value is on record as 67 ± 6%.

For `CC(C)(CNC(=O)N1CCOCC1)NCC(O)COC(=O)c1ccco1` (centres unmarked), in series [2], the “% Inhibition” value stood at 40%, the “Time for 50% Rec.” value was determined as 9 min and the “Time for 80% Rec.” value stood at 30 min. Further, the “pA2 (atria)” value in series [1] (Table IV) amounted to 7.6.

In the case of `COCCOC(=O)NCC(C)(C)NCC(O)COC(=O)c1ccccc1F` (centres unmarked) [XXXI, 3-[1,1-Dimethyl-2-[2-[(2-methoxy)ethoxycarbonylamino]]ethylamino-2-hydroxypropyl 2-Fluorobenzoate Oxalate], the Kb in series [1] (setting [8]) is 20 nM.

On to `CC(C)(CNC(=O)N1CCCCC1)NCC(O)COC(=O)c1ccco1` (centres unmarked), for which, in series [2], the “% Inhibition” value is reported as 59%, the “Time for 50% Rec.” value is 5 min and the “Time for 80% Rec.” value is 17 min. The Kb in series [1] (Table IV, read-out: pA2 (atria) (converted)) is 100 nM.

For `Cc1cc(O)ccc1C(=O)OCC(O)CNC(C)(C)CNC(=O)N1CCOCC1` (centres unmarked) [XXXVII, 3-[1,1-Dimethyl-2-(1-morpholinocarbonylamino)]ethylamino-2-hydroxypropyl 2-Methyl-4-hydroxybenzoate Oxalate], in series [1] (Table I, guinea pig right atria, isoproterenol agonist, 60-minute incubation, 37° C.), the “PA2 Rt. Atria” value turned out to be 8.2.

Turning to `CC(C)(CNC(=O)C1CCCCC1)NCC(O)COC(=O)c1ccccc1F` (centres unmarked) [Example VI, 3-[1,1-Dimethyl-2-(cyclohexylcarbonylamino)]ethylamino-2-hydroxypropyl 2-Fluorobenzoate Oxalate], in series [2], the “Recovery Time 50%” value stood at 8 ± 3 min, the “Recovery Time 80%” value is 12 ± 3 min, the Potency came out at 1.4 mg/kg/180 min and the “% I (Percent inhibition of heart rate response to isoproterenol)” value is 61%. In addition, the Kb in series [1] (setting [8]) is 20 nM.

With `O=C(Cc1ccccc1)NCCNCC(O)COC(=O)c1ccccc1F` (centres unmarked) [XIII, 3-[2-(Benzylcarbonylamino)ethyl]amino-2-hydroxypropyl 2-Fluorobenzoate Hydrochloride], the Kb in series [1] (setting [8]) was over 1000 nM.

Regarding `CC(C)(CNC(=O)N1CCOCC1)NCC(O)COC(=O)c1ccc(O)cc1` (centres unmarked) [XXXVI, 3-[1,1-Dimethyl-2-(1-morpholinocarbonylamino)]ethylamino-2-hydroxypropyl 4-Hydroxbenzoate Oxalate], the Kb in series [1] (setting [8]) was 7.94 nM.

As to `CC(=O)NCC(C)(C)NCC(O)COC(=O)c1ccccc1F` (centres unmarked) [IV, 3-[1,1-Dimethyl-2-(methylcarbonylamino)]ethylamino-2-hydroxypropyl 2-Fluorobenzoate], in series [2], the “Recovery Time 50%” value worked out at 7 min, the “Recovery Time 80%” value stood at 35 min, the Potency is 2.7 mg/kg/180 min and the “% I (Percent inhibition of heart rate response to isoproterenol)” value came to 61%. Moreover, in series [3], the amount remaining at 1 h stood at 39% and the share remaining at 2 h came out at 23%. Moreover, the Kb in series [1] (setting [8]) was 31.6 nM. For the same compound, in series [7], the share remaining at 1 h amounted to 87% and the amount remaining at 2 h was found to be 52%. Moreover, the half-life in series [7] (approximate value determined by procedure C, read-out: T1/2 dog aqueous humor) is about 120 min. In addition, in series [4], the amount remaining at 1 h worked out at 0% and the share remaining at 2 h came to 0%. Moreover, in series [5], the half-life worked out at 7.5 min.
